Literature values as cited in US7012096B2, “Composition for pain mediation and apparatus and method of use thereof” (Palladin Healthcare International, Inc., priority 1998, dated 2006).

How the values were obtained:
human keratinocytes = conditions: in vitro tissue culture
human fibroblasts = conditions: in vitro tissue culture

## CC(=O)O [acetic acid]
Human keratinocytes
  Concentration toxic to human keratinocytes: above 0.025%
Human fibroblasts
  Concentration toxic to human fibroblasts: above 0.025%
